The subject of assay [1] is MCF-7 breast cancer cells. The assay is described as follows: MTT cell viability / anti-proliferative assay in MCF-7 cells. Type of assay: cell-based. The note with it: MCF7 cells, compared to peptide ST-BC1. As to the method:
MCF-7 breast cancer cells set at a density of 2.5×10^4 cells/well in 150 μL of MEM medium+10% fetal bovine serum (FBS) in a 96 well dish. Lyophilized BCL9 peptides were reconstituted at a concentration of 10 mg/mL in 270 mM trehalose buffer and added to each well at a volume of 50 μL to a final concentration range of 2.5-40 μM. Cells were incubated with BCL9 peptides for 96 hours at 37° C.
Cell viability was quantified by spectrophotometry using Roche MTT cell proliferation assay kit according to manufacturer's instructions. Briefly, cells were washed with PBS, and incubated in fresh MEM medium with 10% FBS, 1% penicillin/streptomycin, and 1% non-essential amino acids, plus 10 μL MTT reagent at 37° C. for 4 hours. After 4 hours, 100 μL of solubilization solution was added, and cells were incubated overnight at 37° C. and 5% carbon dioxide. Absorbance was measured at OD570 nm with a reference of OD650 nm. The degree of absorption is proportional to the number of living cells. Percentage of absorbance relative to untreated controls was quantified and presented as % Cell Viability.
In functional assays, EC50 is the concentration that reduces a biological response by 50% of its maximum. In the case of BLC9 peptides, EC50 is measured as the concentration that reduces cell viability by 50% of its maximum. EC50 can be calculated by any number of means known in the art.

For assay [2], the system named is MCF7 breast cancer cells. The assay is described as follows: MCF7 subcutaneous tumor model, tumor volume. As to conditions: 1 mg/kg or 5 mg/kg s.c. three times weekly for three weeks, dosing from day 14, starting tumor about 340 mm^3; p≤0.0004. Type of assay: in vivo, NU/J mice. As to the method: In this experiment, we examined the effect of peptide BCL-26 on tumor volume in an MCF7 subcutaneous tumor model. Briefly, 2×10^6 MCF7 breast cancer cells, suspended 1:1 in Matrigel, were implanted via subcutaneous injection into the axilla of NU/J mice. Peptide BCL-26 was administered at a dose of 12.5 mg/kg via subcutaneous injection three times weekly for three weeks. Dosing was initiated on day 2 post tumor inoculation, with an average starting tumor volume of about 25 mm^3.
We also examined the effect of BCL9 mimetic peptides in established tumors. MCF7 cells were implanted into mice as described above. Peptide BCL-87 was administered at a dose of 5 mg/kg via subcutaneous injection three times weekly for three weeks. Dosing was initiated on day 21 post tumor inoculation, with an average starting tumor volume of about 470 mm^3.
We additionally examined the effect of different concentrations of mimetic peptides in established tumors. MCF7 cells were implanted into mice as described above. Peptides BCL-27 and BCL-87 were administered at a dose of 1 mg/kg or 5 mg/kg via subcutaneous injection three times weekly for three weeks. Dosing was initiated on day 14 post tumor inoculation, with an average starting tumor volume of about 340 mm^3.

Assay [3] has as its system HL60 promyelocytic leukemia cells. Put plainly: Cytotoxicity assay in HL60 cells (Annexin V FITC / PI flow cytometry). Type of assay: cell-based. The note with it: 48 hours, 0-80 μM, % Viability (Annexin V low, PI low). A digest of the protocol:
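HL60 cells at 3.5×10^3/well in RPMI + 1.5% FBS exposed to peptides at 0-80 μM final for 48 h at 37 °C. Viability by flow cytometry after Annexin V-FITC/PI staining, gated on FSC vs SSC. % Viability is the fraction that is Annexin V^low and PI^low.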

Square brackets hold non-standard residues; d marks the D form. Peptide text beside a SMILES is read from it.

On to “YGRKKRRQRRRLSQEQLEHRERSLQTLRDIQRMLF [BCL-21, TAT cell-penetrating region plus native BCL9 HD2 domain]”, for which the anti-proliferative activity result in assay [1] is listed as “inefficient at inhibiting cell proliferation”. Usually EC50 stands for the concentration giving half of the maximal effect. As to `CC(C)C[C@@H](NC(=O)[C@@H](Cc1c[nH]c2ccccc12)NC(=O)[C@H](N)Cc1c[nH]c2ccccc12)C(=O)N[C@H](C)C(=O)N[C@H](CCCNC(=N)N)C(=O)N[C@H](CCC(N)=O)C(=O)N[C@H](CC(C)C)C(=O)N[C@H](C)C(=O)N[C@H](CCCNC(=N)N)C(=O)N[C@H](CC(C)C)C(=O)N[C@H](C)C(=O)N[C@H](CCC(N)=O)C(=O)N[C@H](CC(C)C)C(=O)N[C@H](C)C(=O)N[C@H](CCCCN)C(=O)N[C@H](CC(C)C)C(=O)N[C@@H](C(=O)N1CCC[C@@H]1C(=O)N[C@@H](C(=O)O)C(C)C)[C@H](C)O` [BCL-27, WWLARQLARLAQLAKLTPV] (H-[dW][dW][dL][dA][dR][dQ][dL][dA][dR][dL][dA][dQ][dL][dA][dK][dL][dT][dP][dV]-OH; N-terminus and C-terminus assumed), in assay [2], the “tumor volume relative to vehicle and to peptide control BCL-134” value is recorded as “significantly reduced tumor volume”. Further, the concentration for a half-maximal effect (EC50) in assay [3] lay in the range of 2 to 10 µM.

Values taken from patent US12552846B2, “Modified BCL9 mimetic peptides” (Sapience Therapeutics, Inc., priority 2019, dated 2026).
